Results reported in patent US20250242340A1, “SABRE CATALYSTS CONTAINING FLUORINATED CARBON CHAINS FOR DELIVERY OF METAL-FREE MRI CONTRAST AGENTS” (The United States of America, as represented by the …, priority 2022, published 2025).
Like-named read-outs stand apart in the source and are kept apart here.

Tests used:
[1] = assay type: physicochemical; settings: 23 mM sodium [1-13C]pyruvate, 7.4 mM catalyst of Example 4, 46 mM DMSO, 0.2 mL NFBME + 0.2 mL MeOD, 90 scc/m, 110 PSI, 0.4 μT, 0 °C
[2] = Relaxation dynamics of hyperpolarized [1-13C]pyruvate in fluorous mixture (Example 25); assay type: physicochemical; settings: fluorous mixture NFBME/MeOD
Text: (§1) In addition, the relaxation dynamics of the [1-^13C]pyruvate were also studied.
In addition, relaxation dynamics at earth field and 1.8 T are about the same as a non-fluorinated SABRE catalyst T1=9.0±1.9 s and 16.0±1.4 s, respectively.

[3] = assay type: physicochemical; settings: 40 mM sodium [1-13C]pyruvate, 6.6 mM catalyst of Example 16, 50 mM DMSO, CD3OD, 0.4 μT, 5 °C, 110 psi, 90 scc/m, 1.8 T
Description: (§2) The SABRE samples were prepared in CD3OD, using 40 mM sodium [1-^13C]pyruvate, 6.6 mM perfluorinated SABRE catalyst of Example 16, and 50 mM dimethyl sulfoxide (DMSO), as described in Examples 6 and 7. The SABRE samples were exposed to the SABRE-SHEATH hyperpolarization conditions with the same set-up and optimum conditions described in Examples 6 and 7. The NMR tubes were pressurized (110 psi, i.e., approximately 8 bar total pressure) with p-H2 bubbling through the solution at a flow of 90 scc/m to activate the catalyst and to ^13C-hyperpolarize the sodium [1-^13C]pyruvate solution. Activation of the catalyst took place for about 15 minutes at ambient temperature and magnetic field. For polarization build-up, the sample was placed in the magnetic field (typically about 0.4 μT) and a water bath at 5° C. to regulate the reaction temperature. The spectrum was acquired immediately following manual sample transfer to a 1.8 T benchtop NMR after 5 seconds, and the results are set forth in the top spectrum of FIG. 16.

[4] = Isolation of hyperpolarized pyruvate by D2O precipitation of the catalyst and filtration (Example 8); assay type: physicochemical; settings: 20% v/v D2O added, Oasis Prime HLB filter, 1.8 T NMR, procedure about 1.15 to 1.30 minutes
Description: The parahydrogen flow rate was established at 90 scc/m and pressurized to 8 bars, the mixing field was 0.4 μT, and the temperature was 0° C.
After the hyperpolarization procedure was completed, the sample was rapidly removed from the 0.40 μT field, depressurized, and 20% in volume (125 μL) of D2O was added to the solution to precipitate the perfluorinated SABRE catalyst.

[5] = Precipitation of HP pyruvate with ethyl acetate and reconstitution in D2O (Example 9); assay type: physicochemical; settings: after EtOAc precipitation and reconstitution in water (D2O); 7.5 mM fluorinated catalyst, 50 mM DMSO, 20-30 mM pyruvate, 1.8 T
Description: Precipitation and redissolution of HP [1-^13C]pyruvate, which takes place in the same NMR tube where hyperpolarization, was performed (Schmidt et al., ACS Sensors, 7(11), 3430-3439 (2022)). The SABRE samples were prepared in CD3OD, using between 20 and 30 mM sodium [1-^13C]pyruvate, 7.5 mM fluorinated SABRE catalyst, and 50 mM dimethyl sulfoxide (DMSO), as described in Examples 6 and 7. 100 μL of this solution was transferred into 5 mm NMR tube and exposed to the SABRE-SHEATH hyperpolarization conditions with the same set-up and optimum conditions described in Examples 6 and 7. The solution was located inside a 3-layer mu-metal of 3″ I.D. and 9″ depth to shield external magnetic fields, combined with a custom-made solenoid to generate a static magnetic field B0 of 0.4 μT. The NMR tubes were pressurized (110 psi, i.e., approximately 8 bar total pressure) with p-H2 bubbling through the solution at a flow of 90 scc/m to activate the catalyst and to ^13C-hyperpolarize the sodium [1-^13C]pyruvate solution. Activation of the catalyst took place for 15 min at ambient temperature and magnetic field. For polarization build-up, the sample was placed in the static magnetic field (typically about 0.4 μT) and a water bath to regulate the reaction temperature at 0° C. After polarization, the NMR tube was rapidly transferred inside the NMR spectrometer at 1.8 T and kept at room temperature. […]

[6] = Biphasic extraction of hyperpolarized pyruvate into D2O from NFBME/MeOD (Example 26); assay type: physicochemical; settings: after addition of 400 μL D2O to NFBME/MeOD sample (emulsion, bound and free pyruvate), catalyst of Example 4, 1.8 T, room temperature
Description: The hyperpolarization procedure of Example 6 was repeated using a mixture of nonafluorobutyl methyl ether (NFBME) and deuterated methanol instead of only deuterated methanol.
After the hyperpolarization procedure was completed, the sample was rapidly removed from the 0.40 μT field and transferred inside the NMR spectrometer at 1.8 T at room temperature. The NMR sample was depressurized and 400 μL of D2O was added to the solution in order to drive the hyperpolarized sodium [1-^13C]pyruvate into the aqueous phase.

[7] = Re-use of the fluorous catalyst mixture for pyruvate hyperpolarization (Example 26); assay type: physicochemical; settings: re-used catalyst mixture from 4 days earlier, fresh 23 mM pyruvate and 47 mM DMSO in 0.2 mL CD3OD
Description: The fluorous mixture containing the perfluorinated SABRE catalyst in NFBME and MeOD was re-used for further sodium [1-^13C]pyruvate hyperpolarization.

[8] = assay type: physicochemical; settings: 20 mM sodium [1-13C]pyruvate, 7.6 mM catalyst shown in Scheme 4, 50 mM DMSO, CD3OD, 0.4 μT, 5 °C, 110 psi, 90 scc/m, 1.8 T
Description: as §2, with “20” for “40”, “7.6” for “6.6”, “shown in Scheme 4,” for “of Example 16,”, “17.” for “16.”

[9] = assay type: physicochemical
Text: Parahydrogen was generated using a Gas-Delivery Manifold. Ultra-high-purity hydrogen gas (Airgas) was fed into a ParaHydrogen flow cryostat (Xeus technology LTD) and enriched to about 50% parahydrogen in the presence of a spin-exchange catalyst (Fe2O3) at liquid nitrogen temperature (77K). […] The entire pH2 line was pressurized to 100 psi.
The magnetic shield condition was as follows. […] The shield was degaussed using internal homebuilt coils driven by a Variac when necessary.
MR experiments were performed using a 1 T Magritek Spinsolve benchtop NMR spectrometer.
FIG. 6 depicts, in the top curve, a single-scan HP ^13C spectrum obtained for the hyperpolarized probe. […] Enhancement is ε˜9000 and polarization is about P(^13C)˜1%.
All experiments were performed with the solution containing fluorinated catalyst, co-ligand (phenyl trifluoromethyl sulfoxide) and [1-^13C]Pyruvate in 0.6 mL CD3OD. The ratio and concentration can be further adjusted to attain better enhancement and polarization. […] The experiments were performed at room temperature, ˜100 scc/m p-H2 flow rate and 96 PSI p-H2 overpressure. The parahydrogen used in this example came from a low-cost 50% p-H2 generator. Each experiment, the p-H2 bubbling was applied for ˜1 min, the sample was quickly transferred to the 1 T NMR spectrometer for detection and the sample was then returned to the mu-metal shield to continue p-H2 bubbling for the next experiment.

[10] = Relaxation dynamics of hyperpolarized [1-13C]pyruvate in methanol (Example 7); assay type: physicochemical
Text: as §1
In addition, relaxation dynamics at earth field and 1.8 T are about the same as a non-fluorinated SABRE catalyst T1=28.9±1.6 s and 66.5±7 s, respectively.

[11] = Example 5 text: 8 mM fluorinated catalyst (Example 4), 16 mM PTFSO, 30 mM [1-13C]pyruvate, 0.6 mL CD3OD, room temperature, ~100 scc/m, 96 PSI, 50% p-H2, 1 T NMR
[12] = FIG. 6 legend: 30 mM sodium [1-13C]pyruvate, 42 mM PTFSO, 7.8 mM Ir-F-IMes, deuterated methanol, 55 s 50% p-H2 bubbling, BT=−0.7 μT, 1 T NMR

SMILES: CC(=O)C(=O)O [[1-^13C]pyruvate, Sodium [1-^13C]-pyruvate]
- 13C signal enhancement ε [1]: ~38600 fold
- P13C [1]: ~6.02%
- T1 ([2]; 1.8 T): 16.0 ± 1.4 s
- T1 ([2]; relaxation at 0.4 μT): 11.3 ± 1.3 s
- 13C signal enhancement ε [3]: ~16900 fold
- P13C [3]: ~2.17%
- HP 13C signal after catalyst precipitation and filtration [4]: no HP ^13C signal was observed in any sample
- 13C signal enhancement ε [5]: ~9000 fold
- P13C [5]: ~2.17%
- 13C signal enhancement ε [6]: ~10800 fold
- P13C [6]: ~1.68%
- 13C signal enhancement ε [7]: ~3090 fold
- P13C [7]: ~0.48%
- 13C signal enhancement ε [8]: ~19000 fold
- P13C [8]: ~4.91%
- 13C signal enhancement ε [9, 11]: ~9000
- polarization P(13C) [9, 11]: ~1%
- 13C signal enhancement ε [9, 12]: ~1250
- polarization P(13C) [9, 12]: ~0.1%
- T1 ([10]; catalyst of Example 4, 1.8 T): 66.5 ± 7 s
- T1 ([10]; catalyst of Example 4, Earth's field): 28.9 ± 1.6 s
- T1 ([10]; catalyst of Example 4, relaxation at 0.4 μT): 16.1 ± 0.9 s
